Experiment in all cases: inhibition of tumour cell growth, NCI panel, 48 h
Assay [1] deals with NCI-H522 lung.
Assay [2] concerns SNB-19 CNS.
Assay [3] has as its system CAKI-1 renal.
In assay [4] the test system is M14 melanoma.
Assay [5] deals with HT29 colon.
Assay [6] deals with HCT-116 colon.
For assay [7], the system named is LOX IMVI melanoma.
Assay [8] deals with NCI-H23 lung.
Assay [9] deals with RXF 393 renal.
Assay [10] concerns RPMI-8226 leukemia.
In assay [11] the test system is HOP-92 NSCLC.
The test system of assay [12] is T-47D breast.
Assay [13] concerns EKVX NSCLC.
In assay [14] the test system is BT-549 breast.
The test system of assay [15] is A549 NSCLC.
Assay [16] deals with UO-31 renal.

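How tested: cells in 96-well plates exposed to compound for 48 hours at five concentrations. TGI: concentration producing complete growth inhibition.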

With `CC(=O)c1sc2n(C)c(=O)c3ccccc3[n+]2c1C`, the TGI in [1], in assay [2], in assay [3], in assay [4], in assay [5] and in [6] was above 100 µM in each case. Further, the TGI in assay [7], in assay [8], in [9], in [10], in assay [11] and in [12] was above 100 µM throughout. Moreover, the TGI in assay [13], in assay [14], in [15] and in assay [16] was above 100 µM throughout.

`C=C1C(=O)OC2/C=C(\C)CC/C=C(\C)CC(OC(=O)/C(=C/CO)CO)[C@@H]12` (some centres not stated): the TGI was 3.5 µM in assay [1]; above 85.7 µM in assay [2]; 14.1 µM in [3]; 11.4 µM in [4]; 20.6 µM in assay [5]; 10.7 µM in assay [6]. The TGI in [7] turned out to be 31.1 µM; in [8], 29.4 µM; in [9], 21.3 µM; in assay [10], 5.74 µM; in [11] it was 13.5 µM; in [12], 15.9 µM. Besides, the TGI in [13] came to 29 µM; in assay [14], 26.5 µM; in assay [15] it was 57.3 µM; in [16] it was 23.9 µM.

The values are drawn from PubChem BioAssay (NCI).
